Assay results published in patent publication US12703693B2, “Crystalline forms of N-{3-[(1S)-1-{[6-(3,4-dimethoxyphenyl)pyrazin-2-yl]amino}ethyl]phenyl}-5-methylpyridine-3-carboxamide and related products and methods” (GB002, INC., priority 2021, dated 2026).
Converted amounts (≈) assume the structure as drawn. “And” between values parts separate entries of the source, which are not always exact repeats. Equal values may be shown once. Marks after values point to notes of the source that are not given here.

Tests used:
[1] = Particle size distribution (PSD) of micronized / spray dried material; format: physicochemical
Description: Crystalline Compound 1 Form A was fed into a grinding chamber tangentially by vacuum created by the venturi system using pressurized nitrogen (venturi pressure, Pvent, above grind pressure, Pgrind). Compressed nitrogen was also used for the jet nozzles in the walls of the chamber. The feed flow rate was set and controlled automatically (by a gravimetric feeder) or manually. Once inside the milling chamber particles were accelerated by a series of perimeter jets, in a spiral movement. The compressed fluid issuing from the nozzles expands from Pgrind and imparts very high rotational speeds in the chamber. The micronizing effect occurs when the slower incoming particles and the faster particles in the spiral path collide. While centrifugal force retains the larger particles at the periphery of the milling chamber, the smaller particles exit with the exhaust gas from the center of the chamber. Five 20 g trials were performed in a 1.5″ jet mill, under varying feed rates (Ffeed,JM,) and pressures; the optimal conditions were used for a sixth larger scale 50 g trial.
Aqueous suspensions of crystalline Compound 1 Form A in water (5% w/w or 10% w/w) were processed via microfluidization with a HPH18 (M-110EH-30 Microfluidics Pilot) wet milling apparatus equipped with an auxiliary processing module (200 μm) and an interaction chamber (Z-shape, 100 μm). The unit was initiated at a given pressure for the first five cycles to perform a pre-milling of the suspension, using only the auxiliary processing module (200 μm). The interaction chamber (100 μm) was then introduced and the suspension processed at a defined pressure. The temperature was controlled, using a reactor jacket, and recorded. To address clogging of the micronization chambers (observed after ~25 cycles), the pressure was increased from 25 to 60 bar.
The material isolated from the first run 1A, was dived into three (1BI, 1BII and 1BIII); runs 2A and 3A were spray dried to produce samples 2B and 3B, respectively. […] Runs 2B and 3B were additionally characterized for specific surface area (SSA). See Table 27 (runs 1BI, 1BII and 1BIII) and Table 28 (runs 2B and 3B) for conditions and product characterization. […]
Two 250 g batches of crystalline Compound 1 Form A were each suspended in water (5 L) and wet polished in a wet milling HPH18 (M-110EH-30 Microfluidics Pilot) apparatus, equipped with an auxiliary processing module (200 μm) and an interaction chamber (Z-shape, 100 μm). The unit was initiated at 50 bar for the first five cycles to perform a pre-milling of the suspension, using only the auxiliary processing module (200 μm). The interaction chamber (100 μm) was then introduced and the suspension processed at 50 bar (increased to 60 or 70 bar if the system clogged). The temperature was maintained at 18-28° C. using a reactor jacket. The Reactor agitation speed was 280 RPM (batch 1) and 390 RPM (batch 2). The first batch was micronized for 25 cycles and particle size distribution analyzed after 5, 15 and 20 cycles; the second batch was micronized for […] and particle size distribution analyzed after 15, 20, 25 and 35 cycles.
Both batches were then spray dried (separately) using a Büchi spray dryer, using an open loop system. The unit was equipped with a two-fluid nozzle: cap and orifice diameters of 1.5 and 0.7 mm, respectively operated with nitrogen. The aspirator, blowing nitrogen, was set at 100% capacity (~40 kg/h). The suspension feed flow was set to 8 ml/min, high and the drying outlet temperature to 75±1° C. […] Total yield (both batches combined) was 267 g (53%).
Two 250 g batches (250 g and 238 g; 488 g total) of crystalline Compound 1 Form A coated with ~2% L-leucine were each suspended in water (5 L) and wet polished in a wet milling HPH18 (M-110EH-30 Microfluidics Pilot) apparatus, under the same process as described in the previous example. The first batch was micronized for 25 cycles and the second for 30 cycles. […]

[2] = Solubility in ethanol/water mixtures; conditions: for solubility / solubility at 4 h / solubility at 24 h: 22 °C, aqueous with cosolvent or surfactant or cyclodextrin, thermodynamic from solid
Description: (§1) Phosphate Buffer contained NaH2PO4·H2O (0.345 g), sodium hydroxide aqueous solution (0.2M, 10.001 mL), sodium chloride (0.576 g) and water (qs ad 100.0 mL); • Ethanol/Water (30/70) contained Ethanol (30.0 g) and Water (70.0 g); • Ethanol/Water (40/60) contained Ethanol (40.0 g) and Water (60.0 g); • Ethanol/Water (50/50) contained Ethanol (50.0 g) and Water (50.0 g); and • Ethanol/Water (45/55) contained Ethanol (4.50 g) and Water (5.51 g).

[3] = Solubility in 25 mM phosphate buffer pH 7.4
Description: as §1

[4] = Product characterization of micronized / spray dried powder (XRPD, amorphous content, water content by KF, assay and related substances, SSA); format: physicochemical; conditions: final product, Compound 1 alone, wet polished and spray dried
Description: The final spray dried product was characterized for assay and related substances, PSD, water content by KF and XRPD and the results shown in Table 43. The two sub-batches were blended to obtain the final product, with a total final yield was 137 g (68%), see Table 44.

[5] = as above; format: physicochemical
[6] = wet polished (wet milled + spray dried) Compound 1 Form A, PSD set 2
[7] = wet milled aqueous suspension of Compound 1 Form A, cycles/pressure: 1A 30/60 bar, 2A 45/50 bar, 3A 30/50 bar
[8] = EtOH/H2O (w:w) 50:50, top layer after centrifugation, 22° C.
[9] = Compound 1 alone, spray dried, individual batch analyses, cyclone 1
[10] = Compound 1 alone, spray dried, individual batch analyses, cyclone 2
[11] = final product, Compound 1 alone, wet polished and spray dried
[12] = jet milled crystalline Compound 1 Form A, label = jet mill run
[13] = Compound 1 alone after wet milling, BATCH 01: 20 cycles/P = 50 bar, BATCH 02: 35 cycles/P = 70 bar

## COc1ccc(-c2cncc(N[C@@H](C)c3cccc(NC(=O)c4cncc(C)c4)c3)n2)cc1OC [Compound 3B-2F]
[1]; [6]
  Dv10 (μm) 2: 1.3 μm
  Dv50 (μm) 2: 3.7 μm
  Dv90 (μm) 2: 14.7 μm
  SPAN 2: 3.6

## COc1ccc(-c2cncc(N[C@@H](C)c3cccc(NC(=O)c4cncc(C)c4)c3)n2)cc1OC [Run 2A]
[1]; [7]
  Dv10: 1.3 μm
  Dv50: 2.7 μm
  Dv90: 4.8 μm

## COc1ccc(-c2cncc(N[C@@H](C)c3cccc(NC(=O)c4cncc(C)c4)c3)n2)cc1OC [Crystalline]
[2]; EtOH/H2O (w:w) 40:60, 22° C.
  Solubility 4 Hours: 18900 µg/mL (≈ 40.3 mM)
  Solubility 24 Hours: 18.3 mg/mL (≈ 39 mM)
  Solubility Average: 18600 µg/mL (≈ 39.6 mM)
[2]; EtOH/H2O (w:w) 45:55, 22° C.
  Solubility 4 Hours: 53300 µg/mL (≈ 114 mM)
  Solubility 24 Hours: 43.3 mg/mL (≈ 92.2 mM)
  Solubility Average: 48300 µg/mL (≈ 103 mM)
[2]; EtOH/H2O (w:w) 50:50, bottom layer after centrifugation, 22° C.
  Solubility 4 Hours: 222000 µg/mL (≈ 473 mM)
[2]; EtOH/H2O (w:w) 50:50, bottom layer after centrifugation, 22° C., result outside calibration curve
  Solubility 24 Hours: 362* mg/mL
[2]; [8]
  Solubility 4 Hours: 125000 µg/mL (≈ 266 mM)
  Solubility 24 Hours: 177 mg/mL (≈ 377 mM)
[3]; 25 mM phosphate buffer pH 7.4, equil time 4 hrs
  solubility: 3.16 µg/mL (≈ 0.00673 mM)
[3]; 25 mM phosphate buffer pH 7.4, equil time 24 hrs
  solubility: 3.05 µg/mL (≈ 0.0065 mM)

## COc1ccc(-c2cncc(N[C@@H](C)c3cccc(NC(=O)c4cncc(C)c4)c3)n2)cc1OC [Compound 1, N-{3-[(1S)-1-{[6-(3,4-dimethoxyphenyl)pyrazin-2-yl]amino}ethyl]phenyl}-5-methylpyridine-3-carboxamide]
[1]; [9]
  Dv10: 0.1 μm and 0.3 μm
  Dv50: 0.4 μm and 0.5 μm
  Dv90: 3.1 μm and 1.5 μm
  SPAN: 7.2 and 2.1
[1]; [10]
  Dv10: 0.1 μm and 0.3 μm
  Dv50: 0.4 μm and 0.5 μm
  Dv90: 2.9 μm and 1.4 μm
  SPAN: 7.9 and 2.0
[1]; [11]
  Dv10: 0.3 μm
  Dv50: 0.6 μm
  Dv90: 3.3 μm
  SPAN: 4.7
[1]; [12]
  Dv10: 0.4 μm
  Dv50: 1.2 μm
  Dv90: 2.8 μm
  SPAN: 2.0
[4]
  Bulk density: 0.10 g/mL
  KF (water content): 0.3 % w/w
  XRPD: Form A
[5]; [11]
  Amorphous content by DSC: <10 % w/w
[5]; [12]
  Amorphous content by DSC: 46 % w/w
  Assay: 97.70 % LC
  Impurities: 1.10 % area
  Water content KF: 1.4 % w/w
  XRPD: P + A
[5]; jet milled crystalline Compound 1 Form A, label = jet mill run, in m2/g (unit assumed)
  Specific Surface Area by BET: 10.35

## CC(C)C[C@H](N)C(=O)O [L-Leucine]
[2]; ethanol/water 30:70 (w:w)
  solubility: 7360 µg/mL (≈ 56.1 mM)
  solubility at 4 h: 7470 µg/mL (≈ 56.9 mM)
  solubility at 24 h: 7260 µg/mL (≈ 55.3 mM)
[2]; ethanol/water 40:60 (w:w)
  solubility: 5880 µg/mL (≈ 44.8 mM)
  solubility at 4 h: 6040 µg/mL (≈ 46 mM)
  solubility at 24 h: 5710 µg/mL (≈ 43.5 mM)
[2]; ethanol/water 50:50 (w:w)
  solubility: 5070 µg/mL (≈ 38.7 mM)
  solubility at 4 h: 4720 µg/mL (≈ 36 mM)
  solubility at 24 h: 5410 µg/mL (≈ 41.2 mM)

## COc1ccc(-c2cncc(N[C@@H](C)c3cccc(NC(=O)c4cncc(C)c4)c3)n2)cc1OC [BATCH 01]
[1]; [13]
  Dv10: 0.2 μm
  Dv50: 0.5 μm
  Dv90: 1.7 μm

## COc1ccc(-c2cncc(N[C@@H](C)c3cccc(NC(=O)c4cncc(C)c4)c3)n2)cc1OC [Run 3A]
[1]; [7]
  Dv10: 0.1 μm
  Dv50: 1.0 μm
  Dv90: 3.5 μm
